Assays:
Conditions in all cases: Compound concentration 10.0 uM, Protein concentration 2.0 uM
[1] = target: SWI/SNF-related matrix-associated actin-dependent regulator of chromatin subfamily A member 2 (Homo sapiens) (UniProt P51531)
[2] = target: Transcription initiation factor TFIID subunit 1 (Homo sapiens) (UniProt P21675)
[3] = target: ATPase family AAA domain-containing protein 2 (Homo sapiens) (UniProt Q6PL18)
[4] = target: Histone-lysine N-methyltransferase ASH1L (Homo sapiens) (UniProt Q9NR48)
[5] = target: Bromodomain-containing protein 7 (Homo sapiens) (UniProt Q9NPI1)
[6] = target: Transcription intermediary factor 1-beta (Homo sapiens) (UniProt Q13263)
[7] = target: Tyrosine-protein kinase BAZ1B (Homo sapiens) (UniProt Q9UIG0)
[8] = target: Protein polybromo-1 (Homo sapiens) (UniProt Q86U86)
Protein polybromo-1 (Homo sapiens), sequence (Q86U86 whole entry): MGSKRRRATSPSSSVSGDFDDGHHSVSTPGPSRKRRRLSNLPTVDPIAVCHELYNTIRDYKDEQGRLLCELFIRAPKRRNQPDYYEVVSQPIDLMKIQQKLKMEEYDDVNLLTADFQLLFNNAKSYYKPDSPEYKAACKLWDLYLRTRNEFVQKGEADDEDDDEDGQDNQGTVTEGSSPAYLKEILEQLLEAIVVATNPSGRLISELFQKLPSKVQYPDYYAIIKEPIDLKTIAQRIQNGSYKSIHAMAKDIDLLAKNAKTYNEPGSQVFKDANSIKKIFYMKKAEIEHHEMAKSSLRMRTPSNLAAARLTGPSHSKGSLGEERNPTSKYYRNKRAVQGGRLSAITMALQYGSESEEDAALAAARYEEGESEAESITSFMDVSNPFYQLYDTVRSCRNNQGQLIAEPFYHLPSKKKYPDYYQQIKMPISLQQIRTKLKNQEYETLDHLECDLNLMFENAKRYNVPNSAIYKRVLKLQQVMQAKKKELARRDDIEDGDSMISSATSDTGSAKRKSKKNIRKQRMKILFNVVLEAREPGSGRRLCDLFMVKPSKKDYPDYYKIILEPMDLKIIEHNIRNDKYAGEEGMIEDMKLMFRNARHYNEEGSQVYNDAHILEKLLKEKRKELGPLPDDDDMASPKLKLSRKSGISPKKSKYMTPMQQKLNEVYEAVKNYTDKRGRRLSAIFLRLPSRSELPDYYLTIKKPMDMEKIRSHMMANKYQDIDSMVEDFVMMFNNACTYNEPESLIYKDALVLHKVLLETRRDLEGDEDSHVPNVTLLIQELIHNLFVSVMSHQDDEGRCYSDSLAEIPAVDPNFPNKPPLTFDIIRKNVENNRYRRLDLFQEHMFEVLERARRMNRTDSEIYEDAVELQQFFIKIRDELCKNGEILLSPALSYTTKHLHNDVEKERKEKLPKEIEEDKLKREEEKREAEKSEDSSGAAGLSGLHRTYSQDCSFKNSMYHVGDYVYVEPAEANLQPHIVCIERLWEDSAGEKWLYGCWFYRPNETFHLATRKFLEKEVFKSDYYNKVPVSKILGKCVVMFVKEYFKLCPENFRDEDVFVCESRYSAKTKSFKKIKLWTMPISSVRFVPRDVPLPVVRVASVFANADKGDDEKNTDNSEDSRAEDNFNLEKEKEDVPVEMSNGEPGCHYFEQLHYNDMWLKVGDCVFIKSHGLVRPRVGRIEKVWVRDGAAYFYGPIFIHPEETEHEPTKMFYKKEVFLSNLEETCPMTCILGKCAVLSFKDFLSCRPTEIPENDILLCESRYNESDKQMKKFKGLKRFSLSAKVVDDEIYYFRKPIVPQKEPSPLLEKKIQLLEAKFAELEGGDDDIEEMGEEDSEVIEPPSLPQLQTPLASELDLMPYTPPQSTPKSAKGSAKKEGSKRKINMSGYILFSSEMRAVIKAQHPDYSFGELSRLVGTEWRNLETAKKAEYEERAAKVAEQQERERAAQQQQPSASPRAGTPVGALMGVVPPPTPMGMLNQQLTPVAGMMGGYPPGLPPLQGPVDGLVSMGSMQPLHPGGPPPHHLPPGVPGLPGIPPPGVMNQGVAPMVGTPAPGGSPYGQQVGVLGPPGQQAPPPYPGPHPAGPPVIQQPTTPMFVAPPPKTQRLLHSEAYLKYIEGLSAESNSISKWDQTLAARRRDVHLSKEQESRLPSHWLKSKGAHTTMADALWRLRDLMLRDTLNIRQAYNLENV

[9] = target: Bromodomain-containing protein 4 (Homo sapiens) (UniProt O60885)
[10] = target: Protein polybromo-1 (Homo sapiens) (UniProt Q86U86); remark: listed apart in the source
[11] = target: Bromodomain-containing protein 1 (Homo sapiens) (UniProt O95696)
[12] = target: Bromodomain-containing protein 2 (Homo sapiens) (UniProt P25440)
Bromodomain-containing protein 2 (Homo sapiens), sequence (P25440 whole entry, looked up): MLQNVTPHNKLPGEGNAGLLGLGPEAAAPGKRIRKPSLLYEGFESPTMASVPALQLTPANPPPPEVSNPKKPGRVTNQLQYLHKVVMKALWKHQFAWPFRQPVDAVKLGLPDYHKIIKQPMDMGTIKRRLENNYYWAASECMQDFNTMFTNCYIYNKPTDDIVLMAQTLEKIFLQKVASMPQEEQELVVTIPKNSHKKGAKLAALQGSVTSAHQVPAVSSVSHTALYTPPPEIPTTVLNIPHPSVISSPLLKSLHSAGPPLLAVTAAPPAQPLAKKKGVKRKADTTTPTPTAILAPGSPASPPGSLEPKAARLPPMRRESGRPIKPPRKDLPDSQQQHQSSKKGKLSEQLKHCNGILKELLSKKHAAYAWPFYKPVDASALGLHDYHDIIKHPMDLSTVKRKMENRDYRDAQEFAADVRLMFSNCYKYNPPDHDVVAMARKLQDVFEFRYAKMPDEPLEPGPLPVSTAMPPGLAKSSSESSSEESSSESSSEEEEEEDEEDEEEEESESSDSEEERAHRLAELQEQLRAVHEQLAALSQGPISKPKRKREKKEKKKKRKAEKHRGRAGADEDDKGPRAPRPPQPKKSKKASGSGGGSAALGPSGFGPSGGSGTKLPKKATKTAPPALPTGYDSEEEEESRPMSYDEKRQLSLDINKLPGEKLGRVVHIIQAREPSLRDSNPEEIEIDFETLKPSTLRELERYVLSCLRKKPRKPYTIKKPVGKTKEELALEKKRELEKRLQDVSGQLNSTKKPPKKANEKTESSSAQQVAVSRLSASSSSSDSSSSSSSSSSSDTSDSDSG

[13] = target: Protein polybromo-1 (Homo sapiens) (UniProt Q86U86); remark: listed apart in the source
[14] = target: Chromatin remodeling regulator CECR2 (Homo sapiens) (UniProt Q9BXF3)
[15] = target: CREB-binding protein (Homo sapiens) (UniProt Q92793)
[16] = target: Bromodomain-containing protein 2 (Homo sapiens) (UniProt P25440); remark: listed apart in the source
[17] = target: SWI/SNF-related matrix-associated actin-dependent regulator of chromatin subfamily A member 4 (Homo sapiens) (UniProt P51532)
[18] = target: PH-interacting protein (Homo sapiens) (UniProt Q8WWQ0)
[19] = target: Nuclear body protein SP140 (Homo sapiens) (UniProt Q13342)
[20] = target: Bromodomain and PHD finger-containing protein 3 (Homo sapiens) (UniProt Q9ULD4)
Peregrin (Homo sapiens) [21] = target: Peregrin (Homo sapiens) (UniProt P55201)
[22] = target: Bromodomain-containing protein 3 (Homo sapiens) (UniProt Q15059)
Bromodomain-containing protein 3 (Homo sapiens), sequence (Q15059 2-726 limits assumed): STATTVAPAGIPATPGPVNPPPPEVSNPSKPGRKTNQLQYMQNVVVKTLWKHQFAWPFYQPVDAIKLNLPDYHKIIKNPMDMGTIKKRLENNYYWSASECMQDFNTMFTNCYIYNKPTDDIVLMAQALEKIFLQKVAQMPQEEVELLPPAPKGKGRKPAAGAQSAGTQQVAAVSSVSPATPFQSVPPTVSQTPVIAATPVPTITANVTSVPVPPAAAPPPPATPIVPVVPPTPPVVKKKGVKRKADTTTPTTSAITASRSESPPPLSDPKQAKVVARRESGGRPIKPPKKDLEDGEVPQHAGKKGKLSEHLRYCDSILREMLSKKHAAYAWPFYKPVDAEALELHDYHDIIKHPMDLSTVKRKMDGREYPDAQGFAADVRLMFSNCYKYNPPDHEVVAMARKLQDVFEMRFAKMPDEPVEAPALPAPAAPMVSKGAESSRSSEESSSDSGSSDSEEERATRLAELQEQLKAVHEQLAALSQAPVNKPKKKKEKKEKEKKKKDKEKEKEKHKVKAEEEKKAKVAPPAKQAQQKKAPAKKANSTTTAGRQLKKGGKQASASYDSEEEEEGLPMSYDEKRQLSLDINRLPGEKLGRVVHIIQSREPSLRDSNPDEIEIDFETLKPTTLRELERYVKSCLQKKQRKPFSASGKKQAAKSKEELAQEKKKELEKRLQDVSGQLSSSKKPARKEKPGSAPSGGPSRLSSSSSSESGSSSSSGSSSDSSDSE

[23] = target: Protein polybromo-1 (Homo sapiens) (UniProt Q86U86); remark: listed apart in the source
[24] = target: Protein polybromo-1 (Homo sapiens) (UniProt Q86U86); remark: listed apart in the source
[25] = target: Bromodomain testis-specific protein (Homo sapiens) (UniProt Q58F21)
[26] = target: Transcription initiation factor TFIID subunit 1-like (Homo sapiens) (UniProt Q8IZX4)
Transcription initiation factor TFIID subunit 1-like (Homo sapiens), sequence (Q8IZX4 whole entry): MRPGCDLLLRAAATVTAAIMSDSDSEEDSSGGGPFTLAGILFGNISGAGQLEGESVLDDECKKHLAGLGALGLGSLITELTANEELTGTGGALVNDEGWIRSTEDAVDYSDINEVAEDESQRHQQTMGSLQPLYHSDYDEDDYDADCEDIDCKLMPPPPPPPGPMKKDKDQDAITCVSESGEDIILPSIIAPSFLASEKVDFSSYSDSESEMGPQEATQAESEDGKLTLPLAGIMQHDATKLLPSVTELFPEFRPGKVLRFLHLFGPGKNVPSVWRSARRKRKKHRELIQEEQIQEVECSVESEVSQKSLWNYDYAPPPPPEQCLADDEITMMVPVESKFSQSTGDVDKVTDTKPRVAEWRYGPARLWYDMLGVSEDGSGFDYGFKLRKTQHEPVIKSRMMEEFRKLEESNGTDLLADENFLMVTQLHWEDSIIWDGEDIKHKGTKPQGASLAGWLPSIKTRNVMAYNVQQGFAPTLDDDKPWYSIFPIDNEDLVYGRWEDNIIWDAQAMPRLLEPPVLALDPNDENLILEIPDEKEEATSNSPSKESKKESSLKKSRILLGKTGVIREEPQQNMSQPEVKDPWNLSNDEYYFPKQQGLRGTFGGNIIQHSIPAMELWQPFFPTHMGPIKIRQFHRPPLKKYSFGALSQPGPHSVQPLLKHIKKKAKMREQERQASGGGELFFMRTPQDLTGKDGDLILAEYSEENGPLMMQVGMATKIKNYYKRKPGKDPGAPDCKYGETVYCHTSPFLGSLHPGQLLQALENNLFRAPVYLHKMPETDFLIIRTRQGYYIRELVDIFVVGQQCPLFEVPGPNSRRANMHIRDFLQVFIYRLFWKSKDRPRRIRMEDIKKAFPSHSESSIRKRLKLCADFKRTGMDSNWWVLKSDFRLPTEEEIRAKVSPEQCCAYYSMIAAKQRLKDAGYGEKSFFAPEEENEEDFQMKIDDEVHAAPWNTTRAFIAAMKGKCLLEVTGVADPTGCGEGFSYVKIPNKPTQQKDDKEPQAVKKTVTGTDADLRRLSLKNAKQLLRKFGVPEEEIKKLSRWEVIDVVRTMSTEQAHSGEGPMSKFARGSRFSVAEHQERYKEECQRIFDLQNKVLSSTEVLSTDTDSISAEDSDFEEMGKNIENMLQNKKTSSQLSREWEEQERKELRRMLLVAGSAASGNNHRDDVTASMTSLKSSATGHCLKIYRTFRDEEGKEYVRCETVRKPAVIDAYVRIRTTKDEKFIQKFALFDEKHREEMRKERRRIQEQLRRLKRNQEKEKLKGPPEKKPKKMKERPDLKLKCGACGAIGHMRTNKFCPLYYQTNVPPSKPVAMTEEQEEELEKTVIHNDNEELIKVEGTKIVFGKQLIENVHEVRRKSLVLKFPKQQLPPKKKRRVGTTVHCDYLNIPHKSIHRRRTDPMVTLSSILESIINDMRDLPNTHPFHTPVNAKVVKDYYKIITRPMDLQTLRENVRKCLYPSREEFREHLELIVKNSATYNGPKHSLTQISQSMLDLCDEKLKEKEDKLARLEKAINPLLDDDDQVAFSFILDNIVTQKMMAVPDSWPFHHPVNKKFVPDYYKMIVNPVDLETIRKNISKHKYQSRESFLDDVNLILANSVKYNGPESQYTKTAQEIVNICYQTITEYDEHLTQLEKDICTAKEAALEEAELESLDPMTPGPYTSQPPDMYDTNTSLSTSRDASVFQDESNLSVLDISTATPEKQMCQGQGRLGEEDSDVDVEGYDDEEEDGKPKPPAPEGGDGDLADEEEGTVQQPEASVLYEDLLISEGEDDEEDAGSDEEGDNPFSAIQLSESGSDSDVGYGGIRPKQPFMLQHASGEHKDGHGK

[27] = target: Transcription initiation factor TFIID subunit 1 (Homo sapiens) (UniProt P21675); remark: listed apart in the source
[28] = target: Bromodomain and WD repeat-containing protein 1 (Homo sapiens) (UniProt Q9NSI6)
[29] = target: Bromodomain adjacent to zinc finger domain protein 1A (Homo sapiens) (UniProt Q9NRL2)
[30] = target: Transcription intermediary factor 1-alpha (Homo sapiens) (UniProt O15164)
[31] = target: Transcription initiation factor TFIID subunit 1-like (Homo sapiens) (UniProt Q8IZX4); remark: listed apart in the source
[32] = target: Nuclear body protein SP140-like protein (Homo sapiens) (UniProt Q9H930)
[33] = target: Bromodomain and WD repeat-containing protein 3 (Homo sapiens) (UniProt Q6RI45)
[34] = target: Bromodomain-containing protein 3 (Homo sapiens) (UniProt Q15059); remark: listed apart in the source
[35] = target: Bromodomain testis-specific protein (Homo sapiens) (UniProt Q58F21); remark: listed apart in the source
Peregrin (Homo sapiens) [36] = target: Peregrin (Homo sapiens) (UniProt P55201); remark: listed apart in the source
[37] = target: Transcription intermediary factor 1-alpha (Homo sapiens) (UniProt O15164); remark: listed apart in the source
[38] = target: Nucleosome-remodeling factor subunit BPTF (Homo sapiens) (UniProt Q12830)
[39] = target: Histone acetyltransferase p300 (Homo sapiens) (UniProt Q09472)
[40] = target: ATPase family AAA domain-containing protein 2B (Homo sapiens) (UniProt Q9ULI0)
[41] = target: Histone-lysine N-methyltransferase 2A (Homo sapiens) (UniProt Q03164)
[42] = target: Bromodomain adjacent to zinc finger domain protein 2A (Homo sapiens) (UniProt Q9UIF9)
[43] = target: Bromodomain-containing protein 4 (Homo sapiens) (UniProt O60885); remark: listed apart in the source
[44] = target: Histone acetyltransferase KAT2A (Homo sapiens) (UniProt Q92830)
[45] = target: Bromodomain-containing protein 9 (Homo sapiens) (UniProt Q9H8M2)
[46] = target: Bromodomain adjacent to zinc finger domain protein 2B (Homo sapiens) (UniProt Q9UIF8)
[47] = target: Protein polybromo-1 (Homo sapiens) (UniProt Q86U86); remark: listed apart in the source

ΔTm [1]: 0.51 °C
ΔTm [2]: 0.42 °C
ΔTm [3]: 1.18 °C
ΔTm [4]: 0.62 °C
ΔTm [5]: -0.07 °C
ΔTm [6]: 0.5 °C
ΔTm [7]: 0.72 °C
ΔTm [8]: 0.1 °C
ΔTm [9]: 0.1 °C
ΔTm [10]: 0.75 °C
ΔTm [11]: -0.26 °C
ΔTm [12]: 0.23 °C
ΔTm [13]: 0.43 °C
ΔTm [14]: 0.63 °C
ΔTm [15]: 0.95 °C
ΔTm [16]: -0.06 °C
ΔTm [17]: 0.42 °C
ΔTm [18]: -0.82 °C
ΔTm [19]: 0.09 °C
ΔTm [20]: 0.78 °C
ΔTm (Peregrin (Homo sapiens) [21]): 1.19 °C
ΔTm [22]: 0.26 °C
ΔTm [23]: 0.13 °C
ΔTm [24]: 0.65 °C
ΔTm [25]: -2.19 °C
ΔTm [26]: 0.67 °C
ΔTm [27]: 0.5 °C
ΔTm [28]: 2 °C
ΔTm [29]: 1.31 °C
ΔTm [30]: 0.69 °C
ΔTm [31]: 0.33 °C
ΔTm [32]: 0.94 °C
ΔTm [33]: 2.16 °C
ΔTm [34]: 0.13 °C
ΔTm [35]: 0.72 °C
ΔTm (Peregrin (Homo sapiens) [36]): 1.03 °C
ΔTm [37]: 0.77 °C
ΔTm [38]: 0.08 °C
ΔTm [39]: 0.86 °C
ΔTm [40]: 0.61 °C
ΔTm [41]: 1.14 °C
ΔTm [42]: 0.1 °C
ΔTm [43]: 0.39 °C
ΔTm [44]: 3.75 °C
ΔTm [45]: 0.56 °C
ΔTm [46]: 0.67 °C
ΔTm [47]: 0.26 °C
SMILES: Cc1nnc2c3ccccc3c(N[C@@H](C)[C@H](c3ccccc3)N(C)C)nn12

Source: ChEMBL document CHEMBL4649995, “Discovery of a PCAF Bromodomain Chemical Probe” (Angew Chem Int Ed Engl, 2017)
